Assay results as given in ChEMBL document CHEMBL1201862, “PubChem BioAssay data set” (2004).
The source made the active and inactive calls.

Experiments:
[1] = molecular target: Sphingosine 1-phosphate receptor 2 (Homo sapiens, UniProt O95136); assay: Dose Response Cell Based Assay for Agonists of the S1P2 Receptor of Purchased Analogues. [Related pubchem assays: 729, 843, 854, 736 ]; type: functional
[2] = molecular target: Potassium voltage-gated channel subfamily KQT member 2 (Rattus norvegicus, UniProt O88943, W236L); assay: KCNQ2 channel potentiators, dose response, mechanism study for KCNQ2 potentiator project, cell-based, automated electrophysiology (AID 2603); type: functional
[3] = molecular target: Galanin receptor type 2 (Homo sapiens, UniProt O43603); assay: Dose Response cell-based high-throughput screening assay to identify antagonists of galanin receptor 2 (GALR2). [Related pubchem assays: 828, 866 ]; type: functional
[4] = system: INS1; assay: beta cell apoptosis inhibitors, cytokine rescue, dose response, luminescence, retest (AID 449756); type: functional, cell-based; conditions: Rattus norvegicus;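 also: cell death triggered by IL-1 beta plus TNF-alpha plus IFN-gamma mixture; protective hits raise ATP signal compared with cytokine alone wells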
[5] = system: H4; assay: Luminescence Cell-Based Dose Response HTS to Identify Activators of 5'UTR Stem-Loop Driven Prion Protein mRNA Translation in H4 Neuroglioblastoma Cells. [Related pubchem assays: 1829 (Project Summary), 1814 (Primary HTS)]; type: functional; conditions: Homo sapiens
[6] = Luminescence Cell-Based Dose Response to Identify Activators of Luciferase Translation or Activity in H4-C Neuroglioblastoma Cells. [Related pubchem assays: 1829 (Project Summary), 1814 (Primary HTS)]; type: functional
[7] = Luminescence Cell-Based Dose Response to Identify Activators of 5'UTR Stem-Loop Driven Prion Protein mRNA Translation in H4-C Neuroglioblastoma Cells. [Related pubchem assays: 1829 (Project Summary), 1814 (Primary HTS)]; type: functional
[8] = Luminescence Cell-Based Dose Response HTS to Identify Activators of Luciferase Translation or Activity in H4 […] Cells. [Related pubchem assays: 1829 (Project Summary), 1814 (Primary HTS)]; type: functional
[9] = Luminescence Cell-Based Dose Confirmation HTS to Identify Activators of 5'UTR Stem-Loop Driven Alpha-Synuclein mRNA Translation in H4 Neuroglioblastoma Cells. [Related pubchem assays: 1829 (Project Summary), 1814 (Primary HTS)]; type: functional
[10] = Luminescence Cell-Based Dose Confirmation to Identify Activators of 5'UTR Stem-Loop Driven Alpha-Synuclein mRNA Translation in H4 Neuroglioblastoma Cells. [Related pubchem assays: 1829 (Project Summary), 1814 (Primary HTS)]; type: functional
[11] = molecular target: Mucolipin-3 (Homo sapiens, UniProt Q8TDD5); assay: Dose response cell-based high-throughput screening assay for agonists of the transient receptor potential channel ML3 (TRPML3). [Related pubchem assays: 1526, 1424, 1448 ]; type: functional
[12] = molecular target: Ion channel NompC (Danio rerio, UniProt Q7T1G6); assay: Fluorescence counterscreen assay for TRPML3 agonists: dose response cell-based high-throughput screening assay to identify agonists of the transient receptor potential channel N1 (TRPN1). [Related pubchem assays: 1526, 1424, 1448 ]; type: functional
[13] = inhibitors of Bluetongue virus cytopathic effect, confirmation, arbovirus, BSR cells (AID 1250); type: functional;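 also: protection from viral cytopathic effect measured as cell viability by ATP luminescence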
[14] = Luminescent dose response cell-based high throughput screening assay for inhibitors of the Janus kinase 2 mutant JAK2V617F. [Related pubchem assays: 1446 (Primary screen.), 1521 (Confirmation assay.), 1486 (Counter screen.)]; type: functional
[15] = M. tuberculosis H37Rv growth inhibitors, H37Rv strain (AID 1626); type: functional
[16] = molecular target: T1, Rac GTPase-activating protein 1 (Homo sapiens, UniProt Q9H0H5); assay: MgcRacGAP GTPase-activating activity inhibitors, confirmation, biochemical, ADP Hunter fluorescence, primary and confirmatory (AID 624330); type: functional
T1 sequence (Q9H0H5 whole entry): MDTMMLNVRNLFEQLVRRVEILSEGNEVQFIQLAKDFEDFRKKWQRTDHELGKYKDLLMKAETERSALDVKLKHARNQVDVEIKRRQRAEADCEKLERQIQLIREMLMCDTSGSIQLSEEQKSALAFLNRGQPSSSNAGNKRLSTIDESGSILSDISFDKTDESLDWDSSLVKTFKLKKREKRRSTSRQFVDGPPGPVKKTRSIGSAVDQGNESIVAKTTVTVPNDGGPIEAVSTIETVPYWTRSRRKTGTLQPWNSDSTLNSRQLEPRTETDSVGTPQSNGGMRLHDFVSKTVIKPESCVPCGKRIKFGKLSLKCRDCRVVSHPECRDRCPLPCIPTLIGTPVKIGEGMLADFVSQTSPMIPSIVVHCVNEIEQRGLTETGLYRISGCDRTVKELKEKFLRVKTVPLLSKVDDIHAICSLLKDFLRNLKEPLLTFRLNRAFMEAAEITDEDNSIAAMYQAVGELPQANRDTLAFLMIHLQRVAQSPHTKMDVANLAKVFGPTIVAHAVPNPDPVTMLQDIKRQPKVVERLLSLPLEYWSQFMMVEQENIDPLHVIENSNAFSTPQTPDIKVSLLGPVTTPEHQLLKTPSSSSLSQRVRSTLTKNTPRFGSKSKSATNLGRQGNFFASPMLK

[17] = molecular target: Matrix metalloproteinase-14 (Homo sapiens, UniProt P50281); assay: Dose Response confirmation of uHTS hits for a small molecule inhibitors of MT1-MMP activation in a fluorescence assay set 1.; type: functional
[18] = molecular target: Beta-galactosidase (Escherichia coli, UniProt Q8VNN2); type: functional
[19] = HeLa cell cytotoxicity, dose response, cytotoxicity control for MgcRacGAP inhibitor project (AID 624300); type: functional
[20] = enhancers of respiration in Yfh1-depleted yeast, dose response, Friedreich's ataxia, plus single-dose screen (AID 1465); type: functional;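 also: yeast depleted of Yfh1p frataxin homolog grown on glycerol needing respiration; WST-1 tetrazolium dye reduction as measure of cellular dehydrogenase metabolic activity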
[21] = molecular target: T2, Kappa-type opioid receptor (Homo sapiens, UniProt P41145); type: functional
[22] = molecular target: T2, Kappa-type opioid receptor; type: functional; remark: listed apart in the source
[23] = molecular target: Sphingosine 1-phosphate receptor 4 (Homo sapiens, UniProt O95977); assay: Fluorescence dose response cell-based high throughput screening assay for antagonists of the Sphingosine 1-Phosphate Receptor 4 (S1P4). [Related pubchem assays: 1524 (Confirmation in triplicates.), 1510 (Primary screen.)]; type: functional
[24] = molecular target: T3, Hepatocyte nuclear factor 4-alpha (Homo sapiens, UniProt P41235); type: functional, cell-based;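 also: biochemical luminescence-based dose-response counterscreen measuring inhibition of HNF4 dimerization, run alongside a screen for blockers of ABHD5–perilipin-5 interaction; split luciferase complementation of HNF4 fusion proteins in cell lysate measuring dimerization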
T3 sequence (P41235 whole entry): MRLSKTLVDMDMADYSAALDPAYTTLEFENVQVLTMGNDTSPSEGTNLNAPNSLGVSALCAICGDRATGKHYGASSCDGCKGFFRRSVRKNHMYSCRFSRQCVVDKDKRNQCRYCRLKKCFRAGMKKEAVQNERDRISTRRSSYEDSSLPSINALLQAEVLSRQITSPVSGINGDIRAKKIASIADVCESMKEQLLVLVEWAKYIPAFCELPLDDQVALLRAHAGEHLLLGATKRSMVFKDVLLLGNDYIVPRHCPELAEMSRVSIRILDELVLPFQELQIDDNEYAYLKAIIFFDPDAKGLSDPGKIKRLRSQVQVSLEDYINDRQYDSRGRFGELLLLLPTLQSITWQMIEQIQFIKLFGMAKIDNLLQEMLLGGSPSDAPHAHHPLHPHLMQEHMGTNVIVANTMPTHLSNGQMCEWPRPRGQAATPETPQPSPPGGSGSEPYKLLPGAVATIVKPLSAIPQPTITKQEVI

[25] = molecular target: Sphingosine 1-phosphate receptor 1 (Homo sapiens, UniProt P21453); type: functional;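 also: Tango beta-arrestin reporter U2OS cells stimulated with S1P near its EC80; inhibitor potency meaning antagonism of receptor activation by the natural agonist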
[26] = system: Vero; assay: cells; type: functional; conditions: Chlorocebus sabaeus
[27] = inhibitors of PGC1a acetylation in cells, dose response, cell-based, cherry-picked samples (AID 720514); type: functional;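 also: potency may reflect raised or lowered acetylation signal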
[28] = molecular target: T4, Estrogen receptor (Homo sapiens, UniProt P03372); assay: potentiators of ERα–SRC-1 coactivator binding, dose response, biochemical, TR-FRET, ERα LBD (AID 737)
T4 sequence (P03372 whole entry): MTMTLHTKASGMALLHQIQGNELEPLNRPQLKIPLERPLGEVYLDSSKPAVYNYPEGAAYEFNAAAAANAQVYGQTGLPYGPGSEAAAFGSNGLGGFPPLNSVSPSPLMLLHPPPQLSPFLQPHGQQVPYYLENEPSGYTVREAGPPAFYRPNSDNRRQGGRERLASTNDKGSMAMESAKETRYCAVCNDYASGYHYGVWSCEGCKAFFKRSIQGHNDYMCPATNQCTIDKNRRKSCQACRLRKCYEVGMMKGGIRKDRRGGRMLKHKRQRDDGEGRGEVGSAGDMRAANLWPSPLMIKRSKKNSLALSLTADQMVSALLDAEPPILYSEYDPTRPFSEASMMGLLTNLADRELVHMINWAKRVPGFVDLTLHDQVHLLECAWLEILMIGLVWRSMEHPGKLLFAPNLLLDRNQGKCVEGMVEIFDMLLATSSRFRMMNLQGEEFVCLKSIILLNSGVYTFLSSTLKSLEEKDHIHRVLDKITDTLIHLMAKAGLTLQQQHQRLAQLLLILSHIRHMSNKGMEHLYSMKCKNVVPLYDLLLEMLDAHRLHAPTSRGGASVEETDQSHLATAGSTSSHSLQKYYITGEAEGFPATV

[29] = molecular target: Voltage-gated inwardly rectifying potassium channel KCNH2 (Homo sapiens, UniProt Q12809); assay: hERG protection from proarrhythmic block, potency, dose response, cell-based, thallium flux (AID 2121); type: ADME
[30] = molecular target: T5, Polyadenylate-binding protein 1 (Homo sapiens, UniProt P11940); assay: PABP1 MLLE–PAM2 binding inhibitor potency, dose response, biochemical, fluorescence polarization, FITC-PAM2 peptide (AID 602259); type: functional; conditions: read-out: IC50_Mean
[31] = molecular target: T5, Polyadenylate-binding protein 1; assay: PABP1 MLLE–PAM2 interaction inhibitors, dose response, miRNA deadenylation inhibitor project, biochemical, fluorescence polarization, Cy5-PAM2 peptide, secondary (AID 602260); type: functional; conditions: read-out: IC50_Mean
[32] = molecular target: T6, Endoribonuclease toxin MazF (Escherichia coli K-12, UniProt P0AE70); assay: MazF endoribonuclease activators, SAR follow-up, biochemical, fluorescence, single-stranded RNA substrate (AID 588603); type: functional
T6 sequence (P0AE70 whole entry): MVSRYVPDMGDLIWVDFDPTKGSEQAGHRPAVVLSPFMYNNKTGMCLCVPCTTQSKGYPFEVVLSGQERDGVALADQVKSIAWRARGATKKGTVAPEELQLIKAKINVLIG

[33] = system: MEF; assay: SAR analysis of small molecule cytotoxicity of MazEF TA System activators in embryonic fibroblast (MEF) cells. [Related pubchem assays (depositor defined):AID504720, AID504743]; type: functional; conditions: Mus musculus
[34] = molecular target: Cytochrome P450 3A4 (Homo sapiens, UniProt P08684);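 also: CYP3A4 tested as one member of a cytochrome P450 panel screen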
[35] = molecular target: Photoreceptor-specific nuclear receptor (Homo sapiens, UniProt Q9Y5X4); assay: NR2E3 inverse agonists, dose response, biochemical, TR-FRET (AID 463256); type: functional
[36] = molecular target: T6, Endoribonuclease toxin MazF; assay: SAR analysis of small molecule activators of the MazEF TA System via a fluorescence-based single-stranded RNase assay counterscreen. [Related pubchem assays (depositor defined):AID504720, AID504743]; type: functional
[37] = molecular target: T6, Endoribonuclease toxin MazF; assay: MazF toxin RNase activators, dose response, biochemical, fluorescence, single-stranded RNA substrate, uHTS hits (AID 588481); type: functional
[38] = molecular target: Cytochrome P450 2C9 (Homo sapiens, UniProt P11712)
[39] = molecular target: Peroxisome proliferator-activated receptor gamma/Nuclear receptor corepressor 2 (Homo sapiens, UniProt P37231+Q9Y618); assay: Counterscreen for NR2E3 inverse agonists: TR-FRET-based biochemical high throughput dose response assay to identify inverse agonists of the interaction between peroxisome proliferator-activated receptor gamma (PPARg) and nuclear receptor co-repressor 2 (NCOR2).; type: functional
[40] = molecular target: T6, Endoribonuclease toxin MazF; assay: fluorescent RNA oligo signal without MazF, dose response, counter-screen for MazEF activator project, biochemical, fluorescence, single-stranded RNase substrate (AID 588502); type: functional

T2 sequence (P41145 whole entry): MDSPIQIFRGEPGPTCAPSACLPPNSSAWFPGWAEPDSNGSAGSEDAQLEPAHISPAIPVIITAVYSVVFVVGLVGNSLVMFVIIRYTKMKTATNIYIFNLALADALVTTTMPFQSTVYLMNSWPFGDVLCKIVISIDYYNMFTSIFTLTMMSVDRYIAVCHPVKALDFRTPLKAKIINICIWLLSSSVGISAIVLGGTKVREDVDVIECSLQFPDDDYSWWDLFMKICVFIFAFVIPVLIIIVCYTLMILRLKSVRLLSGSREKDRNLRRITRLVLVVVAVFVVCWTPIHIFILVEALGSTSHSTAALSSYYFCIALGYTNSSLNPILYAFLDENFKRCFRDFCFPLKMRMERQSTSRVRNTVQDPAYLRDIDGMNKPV
T5 sequence (P11940 whole entry): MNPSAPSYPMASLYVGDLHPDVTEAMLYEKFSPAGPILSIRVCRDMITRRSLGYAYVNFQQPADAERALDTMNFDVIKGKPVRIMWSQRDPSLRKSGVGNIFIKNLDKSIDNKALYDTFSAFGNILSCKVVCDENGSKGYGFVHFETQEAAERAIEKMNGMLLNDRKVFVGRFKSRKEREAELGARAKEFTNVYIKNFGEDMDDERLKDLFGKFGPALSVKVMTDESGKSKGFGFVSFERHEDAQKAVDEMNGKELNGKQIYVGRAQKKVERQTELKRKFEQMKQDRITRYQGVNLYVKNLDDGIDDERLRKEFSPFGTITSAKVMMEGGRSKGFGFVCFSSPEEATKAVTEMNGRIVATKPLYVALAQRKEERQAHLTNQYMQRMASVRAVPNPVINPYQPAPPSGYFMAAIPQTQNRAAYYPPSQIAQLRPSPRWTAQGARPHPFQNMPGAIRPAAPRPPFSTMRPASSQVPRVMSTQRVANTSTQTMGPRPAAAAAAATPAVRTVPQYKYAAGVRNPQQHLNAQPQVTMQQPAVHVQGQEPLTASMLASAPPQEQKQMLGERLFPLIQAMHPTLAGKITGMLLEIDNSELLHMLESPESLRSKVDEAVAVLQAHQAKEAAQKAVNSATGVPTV
Cytochrome P450 2C9, sequence (P11712 whole entry): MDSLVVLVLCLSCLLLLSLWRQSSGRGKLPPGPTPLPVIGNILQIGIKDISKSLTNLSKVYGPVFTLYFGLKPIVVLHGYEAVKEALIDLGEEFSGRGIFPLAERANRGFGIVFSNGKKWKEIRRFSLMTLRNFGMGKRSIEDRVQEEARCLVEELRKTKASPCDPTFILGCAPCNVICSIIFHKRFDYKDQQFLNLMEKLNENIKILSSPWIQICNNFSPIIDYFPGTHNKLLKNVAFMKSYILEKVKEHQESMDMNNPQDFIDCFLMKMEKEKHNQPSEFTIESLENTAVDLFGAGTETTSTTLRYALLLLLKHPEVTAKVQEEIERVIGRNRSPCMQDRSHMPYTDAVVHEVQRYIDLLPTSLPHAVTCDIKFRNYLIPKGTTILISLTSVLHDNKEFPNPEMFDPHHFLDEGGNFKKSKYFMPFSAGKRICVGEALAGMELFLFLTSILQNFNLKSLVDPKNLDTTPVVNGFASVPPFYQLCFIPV
Photoreceptor-specific nuclear receptor, sequence (Q9Y5X4 whole entry): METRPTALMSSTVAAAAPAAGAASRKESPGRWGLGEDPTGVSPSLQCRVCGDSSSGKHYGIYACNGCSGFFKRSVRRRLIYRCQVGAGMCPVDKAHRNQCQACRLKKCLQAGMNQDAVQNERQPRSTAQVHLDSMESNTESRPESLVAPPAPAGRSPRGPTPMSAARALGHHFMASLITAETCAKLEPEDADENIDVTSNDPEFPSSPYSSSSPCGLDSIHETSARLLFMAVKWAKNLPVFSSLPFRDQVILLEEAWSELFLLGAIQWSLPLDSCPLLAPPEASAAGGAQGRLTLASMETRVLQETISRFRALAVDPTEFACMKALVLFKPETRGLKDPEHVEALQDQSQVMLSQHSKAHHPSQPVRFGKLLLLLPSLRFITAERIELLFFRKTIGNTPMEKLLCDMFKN
Peroxisome proliferator-activated receptor gamma/Nuclear receptor corepressor 2, sequence (P37231 whole entry): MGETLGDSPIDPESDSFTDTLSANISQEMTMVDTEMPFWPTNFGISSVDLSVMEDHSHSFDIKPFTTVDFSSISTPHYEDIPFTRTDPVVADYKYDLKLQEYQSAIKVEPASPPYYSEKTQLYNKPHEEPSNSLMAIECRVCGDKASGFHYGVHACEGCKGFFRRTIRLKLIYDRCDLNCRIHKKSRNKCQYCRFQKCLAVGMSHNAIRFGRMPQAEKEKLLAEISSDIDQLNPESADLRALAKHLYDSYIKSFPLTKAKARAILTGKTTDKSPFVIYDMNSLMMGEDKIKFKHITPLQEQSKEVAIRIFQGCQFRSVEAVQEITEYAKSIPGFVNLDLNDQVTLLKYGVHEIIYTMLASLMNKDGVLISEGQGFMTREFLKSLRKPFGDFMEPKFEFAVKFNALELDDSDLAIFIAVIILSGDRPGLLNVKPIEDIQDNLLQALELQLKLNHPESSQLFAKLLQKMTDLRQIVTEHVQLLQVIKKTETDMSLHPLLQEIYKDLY
Peroxisome proliferator-activated receptor gamma/Nuclear receptor corepressor 2, sequence (Q9Y618 whole entry): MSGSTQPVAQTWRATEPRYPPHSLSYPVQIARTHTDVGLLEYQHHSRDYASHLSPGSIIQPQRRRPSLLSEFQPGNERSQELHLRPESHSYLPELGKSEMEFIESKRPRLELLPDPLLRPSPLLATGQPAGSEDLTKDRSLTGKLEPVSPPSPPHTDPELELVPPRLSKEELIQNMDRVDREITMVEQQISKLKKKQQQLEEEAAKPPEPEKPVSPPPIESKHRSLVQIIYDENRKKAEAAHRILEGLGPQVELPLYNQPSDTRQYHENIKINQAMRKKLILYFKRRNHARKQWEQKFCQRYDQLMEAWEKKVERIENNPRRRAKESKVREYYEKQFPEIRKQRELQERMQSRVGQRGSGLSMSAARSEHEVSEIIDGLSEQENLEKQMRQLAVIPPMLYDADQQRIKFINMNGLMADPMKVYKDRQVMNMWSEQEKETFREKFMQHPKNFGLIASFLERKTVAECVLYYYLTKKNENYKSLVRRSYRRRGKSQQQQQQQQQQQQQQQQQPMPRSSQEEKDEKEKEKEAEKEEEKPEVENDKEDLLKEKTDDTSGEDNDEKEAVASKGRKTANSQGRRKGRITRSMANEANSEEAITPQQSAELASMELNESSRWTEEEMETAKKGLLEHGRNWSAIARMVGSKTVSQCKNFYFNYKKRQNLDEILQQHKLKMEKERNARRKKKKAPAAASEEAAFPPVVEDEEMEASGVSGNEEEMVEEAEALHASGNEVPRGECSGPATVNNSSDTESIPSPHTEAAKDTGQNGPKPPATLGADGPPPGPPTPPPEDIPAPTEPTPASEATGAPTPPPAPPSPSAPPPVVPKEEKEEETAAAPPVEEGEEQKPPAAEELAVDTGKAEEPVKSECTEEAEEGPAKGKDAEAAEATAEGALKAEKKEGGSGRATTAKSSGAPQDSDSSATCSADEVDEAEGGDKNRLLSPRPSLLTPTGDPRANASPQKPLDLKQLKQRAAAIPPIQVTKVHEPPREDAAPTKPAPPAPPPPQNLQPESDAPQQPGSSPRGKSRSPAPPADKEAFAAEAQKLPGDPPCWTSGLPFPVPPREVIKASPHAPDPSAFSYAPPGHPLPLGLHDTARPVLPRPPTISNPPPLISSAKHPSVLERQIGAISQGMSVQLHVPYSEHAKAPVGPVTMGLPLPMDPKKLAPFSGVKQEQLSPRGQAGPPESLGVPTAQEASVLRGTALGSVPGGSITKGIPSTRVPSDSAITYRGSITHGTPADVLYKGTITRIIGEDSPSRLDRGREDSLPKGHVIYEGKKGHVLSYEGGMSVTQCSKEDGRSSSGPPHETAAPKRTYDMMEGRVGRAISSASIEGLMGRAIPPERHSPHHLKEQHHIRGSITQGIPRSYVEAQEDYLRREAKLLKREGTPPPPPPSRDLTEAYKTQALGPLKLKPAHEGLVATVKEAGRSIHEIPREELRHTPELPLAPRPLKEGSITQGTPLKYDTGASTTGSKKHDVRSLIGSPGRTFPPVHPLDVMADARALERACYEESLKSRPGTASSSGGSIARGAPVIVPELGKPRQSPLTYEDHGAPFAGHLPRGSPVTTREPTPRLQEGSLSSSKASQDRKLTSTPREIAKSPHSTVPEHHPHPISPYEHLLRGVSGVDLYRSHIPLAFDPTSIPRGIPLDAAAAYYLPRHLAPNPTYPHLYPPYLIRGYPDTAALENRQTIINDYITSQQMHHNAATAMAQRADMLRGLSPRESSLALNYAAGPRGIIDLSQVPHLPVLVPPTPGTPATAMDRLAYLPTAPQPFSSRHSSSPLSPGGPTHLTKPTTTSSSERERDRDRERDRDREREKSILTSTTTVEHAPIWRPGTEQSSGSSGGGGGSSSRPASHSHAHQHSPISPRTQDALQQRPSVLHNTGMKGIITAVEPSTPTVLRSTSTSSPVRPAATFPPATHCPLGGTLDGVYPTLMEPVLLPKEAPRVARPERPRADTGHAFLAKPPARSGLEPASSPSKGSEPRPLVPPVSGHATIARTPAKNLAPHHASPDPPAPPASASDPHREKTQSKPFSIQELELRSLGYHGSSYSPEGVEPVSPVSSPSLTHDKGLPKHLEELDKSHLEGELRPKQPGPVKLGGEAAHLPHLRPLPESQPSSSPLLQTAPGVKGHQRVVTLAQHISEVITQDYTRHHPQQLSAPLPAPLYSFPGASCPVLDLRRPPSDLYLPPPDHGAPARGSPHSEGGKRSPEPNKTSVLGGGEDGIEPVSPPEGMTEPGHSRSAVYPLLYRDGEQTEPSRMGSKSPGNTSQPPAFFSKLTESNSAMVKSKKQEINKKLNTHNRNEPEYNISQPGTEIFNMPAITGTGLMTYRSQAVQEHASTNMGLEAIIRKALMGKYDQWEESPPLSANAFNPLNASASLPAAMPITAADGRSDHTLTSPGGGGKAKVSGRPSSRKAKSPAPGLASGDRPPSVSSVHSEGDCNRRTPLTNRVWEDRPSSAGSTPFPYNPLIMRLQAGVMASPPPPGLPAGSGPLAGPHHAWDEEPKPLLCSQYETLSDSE

Cc1cc(C(=O)COC(=O)CN2C(=O)C3CCCCC3C2=O)c(C)n1Cc1ccccc1 (stereo unspecified)
EC50 [1]: > 30 µM (not active)

Cc1nc(C)c(-c2csc(Nc3ccccn3)n2)s1
EC50 [2]: 115 µM (active)

CCOC(=O)N1CCN(c2[nH]cnc3c4cc(F)ccc4nc2-3)CC1
IC50 [3]: 45.6 µM (not active) | AC50 [4]: 5.61 µM (active)

CC1CCCCN1CCCNC(=O)c1ccc2nc(N3CCCCC3)sc2c1 (stereo unspecified)
EC50 [5]: 15.1 µM (active) | EC50 [6]: 0.397 µM (active) | EC50 [7]: 0.994 µM (active) | EC50 [8]: < 0.1 µM (active) | EC50 [9]: 0.177 µM (active) | EC50 [10]: 0.593 µM (active)

CSc1nc2ccccc2nc1N(C)S(=O)(=O)c1ccc(C)cc1
EC50 [11]: > 29.9 µM (not active) | EC50 [12]: > 29.9 µM (not active)

Cc1ccc(C2C=C(c3ccc4c(c3)OCO4)Nc3ncnn32)cc1 (stereo unspecified)
IC50 [13]: 38.9 µM (active)

c1ccc2c(CN3CCCCCC3)c[nH]c2c1
AC50 [4]: 4.09 µM (active) | IC50 [14]: 0.702 µM (active)

COc1ccc(NCN2C(=O)CCC2=O)cc1
IC50 [15]: > 100 µM (active)

CC1=NN(c2ccccc2)C(=O)/C1=C/C=C/C=C/N(C)C
IC50 [16]: 68.1 µM (active) | IC50 [17]: 23.3 µM (inactive) | EC50 [18]: 14.8 µM (active) | CC50 [19]: 100 µM (active) | EC50 [20]: > 100 µM (active) | IC50 [21]: 21.6 µM (inactive) | IC50 [22]: > 32 µM

O=C(/C=C/c1ccccc1)CC(O)(c1ccccc1)C(F)(F)C(F)F (stereo unspecified)
IC50 [23]: 1.7 µM (active) | IC50 [24]: 2.27 µM (active) | IC50 [25]: 30.6 µM (not active) | CC50 [26]: 17.5 µM (active) | AC50 [27]: 12.4 µM (active)

CCc1nnc2sc(-c3ccc(NC(=O)c4ccc5c(c4)OCCO5)cc3)nn12
EC50 [28]: 32.2 µM (not active)

Cc1ccc(S(=O)(=O)N=C(S)NC2CCCCC2)cc1
EC50 [29]: 9.12 µM (active) | IC50 [30]: > 66 µM (inactive) | IC50 [31]: > 66 µM (inactive)

O=C(CSc1nc(-c2ccccc2)nc2ccccc12)Nc1nccs1
EC50 [32]: 29.1 µM (inactive) | CC50 [33]: 29.7 µM (active) | AC50 [34]: 1 µM (inconclusive) | IC50 [35]: 5.93 µM (active) | EC50 [36]: > 99 µM (inactive) | EC50 [37]: 20.7 µM (inactive) | AC50 [38]: 0.631 µM (inconclusive) | IC50 [39]: > 39.8 µM (not active) | EC50 [40]: 45 µM (inactive)
